Earlier results on one compound are cited in patent US20100069410A1 (Emisphere Technologies Inc., priority 2006, published 2010).

For this series the following is noted: orally administered, Physicians' Desk Reference 1994.

For the compound `Nc1nc2c(ncn2COCCO)c(=O)[nH]1` [acyclovir, 9-(2-hydroxyethoxymethyl) guanine], the reported oral bioavailability was 15-30%.
